Measurements: patent US20260297042A1, “BIARYLAMIDE DERIVATIVES AND THEIR USE AS PKMYT1 INHIBITORS” (CANCER RESEARCH TECHNOLOGY LIMITED, priority 2023, published 2026)

What was measured:
OVCAR 3 cells = test: Cancer cell line proliferation assay, ATP-based cell viability (Cell Titre Glow), OVCAR 3 (CCNE1-amplified); conditions: KYSE30 (normal CCNE1) GI50 vs. OVCAR 3 (CCNE1-amplified) GI50
In short: (§1)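 Proliferation of KYSE-30 (normal CCNE1) and CCNE1-amplified OVCAR 3 ovarian cancer cells treated with PKMYT1 inhibitors, read by Cell Titre Glow luminescence. GI50 is the concentration giving 50% growth inhibition.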

Human PKMYT1 = target: T1, Human PKMYT1 (Homo sapiens, UniProt Q99640); test: PKMYT1 biochemical ADP-Glo enzymatic assay; conditions: ADP-Glo
T1 construct: Human PKMYT1 75-362 was cloned as a TEV cleavable 6xHis fusion; 6xHis (TEV cleavable) (cleaved yes); made in house; host or cells: bacterial cells
T1 sequence (Q99640 75-362): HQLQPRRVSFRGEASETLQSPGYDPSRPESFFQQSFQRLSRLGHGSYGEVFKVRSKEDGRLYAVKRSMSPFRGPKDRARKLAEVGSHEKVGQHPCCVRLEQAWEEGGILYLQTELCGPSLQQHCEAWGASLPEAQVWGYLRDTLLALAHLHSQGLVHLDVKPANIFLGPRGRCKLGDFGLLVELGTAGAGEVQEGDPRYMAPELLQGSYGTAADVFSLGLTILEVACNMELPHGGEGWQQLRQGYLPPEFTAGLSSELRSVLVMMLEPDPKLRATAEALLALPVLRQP
In short: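 Compounds were titrated over 10 points (3-fold steps), then 15 nM purified PKMYT1 kinase domain (aa 75-362) and 500 µM ATP were added in pH 7.5 HEPES buffer. After 60 min at 26 °C, remaining ATP was depleted and ADP converted to luminescence for IC50 fitting.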

WEE1 = target: T2, WEE1 (Homo sapiens, UniProt P30291); test: Selectivity versus WEE1 assay (ADP-Glo enzymatic assay); assay type: biochemical; conditions: for IC50: ADP-Glo; for PKMYT1 vs. WEE1 selectivity: fold difference in selectivity for PKMYT1 over WEE1
T2 construct: purchased Thermo Fisher PR7373A
T2 sequence (P30291 whole entry): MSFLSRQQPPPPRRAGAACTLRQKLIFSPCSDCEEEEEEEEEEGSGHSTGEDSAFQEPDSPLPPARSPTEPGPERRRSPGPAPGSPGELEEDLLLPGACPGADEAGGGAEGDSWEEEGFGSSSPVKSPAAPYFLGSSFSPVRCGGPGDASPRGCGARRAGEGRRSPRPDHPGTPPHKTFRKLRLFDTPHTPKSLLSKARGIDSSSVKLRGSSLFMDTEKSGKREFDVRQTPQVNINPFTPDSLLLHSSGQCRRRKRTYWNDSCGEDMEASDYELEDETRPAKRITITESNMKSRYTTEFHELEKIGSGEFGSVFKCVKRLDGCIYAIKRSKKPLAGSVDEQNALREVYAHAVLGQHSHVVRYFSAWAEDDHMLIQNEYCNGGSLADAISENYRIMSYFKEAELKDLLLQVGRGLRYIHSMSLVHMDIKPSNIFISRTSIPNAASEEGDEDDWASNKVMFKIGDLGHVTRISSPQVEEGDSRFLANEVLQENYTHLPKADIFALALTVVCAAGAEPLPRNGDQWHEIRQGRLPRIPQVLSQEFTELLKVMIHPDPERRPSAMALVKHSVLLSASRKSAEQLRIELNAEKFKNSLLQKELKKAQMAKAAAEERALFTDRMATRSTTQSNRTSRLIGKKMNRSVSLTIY
In short: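 Compounds were pre-dispensed, enzyme (15 nM final) was added in pH 7.5 HEPES buffer, and ATP ([…]) then started a 60 min incubation at 26° C. Afterwards ADP-Glo reagents were added in turn and luminescence was measured to derive IC50 values.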

KYSE-30 cells = test: Cancer cell line proliferation assay, ATP-based cell viability (Cell Titre Glow), KYSE-30 (normal CCNE1); conditions: Homo sapiens, KYSE-30 cells (normal CCNE1), concentration that achieves 50% cell growth proliferation inhibition, read-out: KYSE30 Gl50
In short: as §1

[1] = 15 nM PKMYT1 kinase domain, 500 µM ATP, 60 minutes at 26° C., banded
[2] = 15 nM WEE1, 60 minutes at 26° C., banded
[3] = banded, ">N" = at least in this band but could be higher
[4] = PKMYT1 kinase domain 15 nM, banded values

Structure (SMILES)	Selectivity ratio KYSE30 Gl50 vs. OVCAR3 Gl50 (OVCAR 3 cells)	IC50 (Human PKMYT1; [1]) [nM]	IC50 (WEE1; [2]) [nM]	PKMYT1 vs. WEE1 selectivity (WEE1; [3])	GI50 (KYSE-30 cells) [nM]	IC50 (Human PKMYT1; [4]) [nM]	IC50 (WEE1; WEE1 15 nM, banded values) [nM]	PKMYT1 vs. WEE1 selectivity (WEE1; banded)
Cc1cn(-c2cn(C)nc2C)nc1Nc1ncc(C(=O)Nc2c(C)ccc(O)c2C)s1 [BAA-392, N-(3-hydroxy-2,6-dimethylphenyl)-2-((1′, 3′,4-trimethyl-1′H-[1,4′-bipyrazol]-3-yl)amino)thiazole-5-carboxamide]	Y (>20 fold)	< 50	1000 to 11000	X (100-<1000 fold)	> 5000			
C=CC(=O)Nc1ccc(C)c(Nc2ncc(C(=O)Nc3c(C)ccc(O)c3C)s2)n1 [BAA-341, 2-((6-Acrylamido-3-methylpyridin-2-yl)amino)-N-(3-hydroxy-2,6-dimethylphenyl)thiazole-5-carboxamide]	X (3-20 fold)	< 50	1000 to 11000	X (100-<1000 fold)	500 to 5000			
Cc1ccc(O)c(C)c1NC(=O)c1cnc(Nc2cccc(-c3ncccn3)n2)s1 [BAA-403, N-(3-hydroxy-2,6-dimethylphenyl)-2-((6-(pyrimidin-2-yl)pyridin-2-yl)amino)thiazole-5-carboxamide]	Y (>20 fold)				> 5000	< 50	50 to 1000	W (10-<100 fold)
COCCn1cc(C)c(Nc2ncc(C(=O)Nc3c(C)ccc(O)c3C)s2)n1 [BAA-490, N-(3-hydroxy-2,6-dimethylphenyl)-2-((1-(2-methoxyethyl)-4-methyl-1H-pyazol-3-yl)amino)thiazole-5-carboxamide]	Y (>20 fold)				> 5000	< 50	1000 to 11000	X (100-<1000 fold)
CCCN(C)C(=O)Cn1cc(C)c(Nc2ncc(C(=O)Nc3c(C)ccc(O)c3C)s2)n1 [BAA-491, N-(3-hydroxy-2,6-dimethylphenyl)-2-((4-methyl-1-(2-(methyl(propyl)amino)-2-oxoethyl)-1H-pyrazol-3-yl)amino)thiazole-5-carboxamide]	Y (>20 fold)				> 5000	< 50	1000 to 11000	X (100-<1000 fold)
Cc1ccc(O)c(C)c1NC(=O)c1cnc(Nc2cccc(-c3ccc(F)cc3)n2)s1 [BAA-306, 2-((6-(4-fluorophenyl)pyridin-2-yl)amino)-N-(3-hydroxy-2,6-dimethylphenyl)thiazole-5-carboxamide]	X (3-20 fold)	50 to 1000	> 11000	X (100-<1000 fold)	500 to 5000			
CCN(CC(F)(F)F)C(=O)Cn1cc(C)c(Nc2ncc(C(=O)Nc3c(C)ccc(O)c3C)s2)n1 [BAA-502, 2-((1-(2-(ethyl(2,2,2-trifluoroethyl)amino)-2-oxoethyl)-4-methyl-1H-pyrazol-3-yl)amino)-N-(3-hydroxy-2,6-dimethylphenyl)thiazole-5-carboxamide]	Y (>20 fold)				> 5000	< 50	1000 to 11000	X (100-<1000 fold)
Cc1ccc(NC(=O)OC(C)(C)C)nc1Nc1ncc(C(=O)Nc2c(C)ccc(O)c2C)s1 [BAA-329, tert-butyl (6-((5-((3-hydroxy-2,6-dimethylphenyl)carbamoyl)thiazol-2-yl)amino)-5-methylpyridin-2-yl)carbamate]	X (3-20 fold)	50 to 1000	> 11000	Y (1000-5000 fold)	500 to 5000			
Cc1ccc(O)c(C)c1NC(=O)c1cnc(Nc2cccc(N3CCC(N)CC3)n2)s1 [BAA-274, 2-((6-(4-aminopiperidin-1-yl)pyridin-2-yl)amino)-N-(3-hydroxy-2,6-dimethylphenyl)thiazole-5-carboxamide]	Y (>20 fold)	< 50	1000 to 11000	W (10-<100 fold)	500 to 5000			
Cc1cn(C)nc1Nc1ncc(C(=O)Nc2c(C)ccc(O)c2C)s1 [BAA-123, 2-[(1,4-dimethylpyrazol-3-yl)amino]-N-(3-hydroxy-2,6-dimethyl-phenyl)thiazole-5-carboxamide]	Y (>20 fold)	< 50	1000 to 11000	X (100-<1000 fold)	> 5000			
Cc1ccc(O)c(C)c1NC(=O)c1cnc(Nc2nn(CC(F)(F)F)c3ccccc23)s1 [BAA-457, N-(3-hydroxy-2,6-dimethylphenyl)-2-((1-(2,2,2-trifluoroethyl)-1H-indazol-3-yl)amino)thiazole-5-carboxamide]	Y (>20 fold)				500 to 5000	< 50	1000 to 11000	X (100-<1000 fold)
Cc1cn(-c2ccc(C(F)(F)F)nc2)nc1Nc1ncc(C(=O)Nc2c(C)ccc(O)c2C)s1 [BAA-367, N-(3-hydroxy-2,6-dimethylphenyl)-2-((4-methyl-1-(6-(trifluoromethyl)pyridin-3-yl)-1H-pyrazol-3-yl)amino)thiazole-5-carboxamide]	Y (>20 fold)	50 to 1000	> 11000	X (100-<1000 fold)	> 5000			
Cc1ccc(O)c(C)c1NC(=O)c1cnc(Nc2nn(CCBr)cc2Cl)s1 [BAA-574, 2-((1-(2-Bromoethyl)-4-chloro-1H-pyrazol-3-yl)amino)-N-(3-hydroxy-2,6-dimethylphenyl)thiazole-5-carboxamide]	X (3-20 fold)				500 to 5000	< 50	1000 to 11000	W (10-<100 fold)
COC[C@@H]1CCCN1C(=O)Cn1cc(C)c(Nc2ncc(C(=O)Nc3c(C)ccc(O)c3C)s2)n1 [BAA-606, (S)-N-(3-hydroxy-2,6-dimethylphenyl)-2-((1-(2-(2-(methoxymethyl)pyrrolidin-1-yl)-2-oxoethyl)-4-methyl-1H-pyrazol-3-yl)amino)thiazole-5-carboxamide]	Y (>20 fold)				500 to 5000	< 50	1000 to 11000	X (100-<1000 fold)
Cc1cn(CC(=O)N2CCC(C)C2)nc1Nc1ncc(C(=O)Nc2c(C)ccc(O)c2C)s1 (stereo not shown) [BAA-497, N-(3-hydroxy-2,6-dimethylphenyl)-2-((4-methyl-1-(2-(3-methylpyrrolidin-1-yl)-2-oxoethyl)-1H-pyrazol-3-yl)amino)thiazole-5-carboxamide]	Y (>20 fold)				> 5000	< 50	1000 to 11000	X (100-<1000 fold)
Cc1cn(-c2cnc(Cl)cc2Br)nc1Nc1ncc(C(=O)Nc2c(C)ccc(O)c2C)s1 [BAA-378]	X (3-20 fold)	50 to 1000	1000 to 11000	W (10-<100 fold)	500 to 5000			
Cc1cn(-c2scnc2C)nc1Nc1ncc(C(=O)Nc2c(C)ccc(O)c2C)s1 [BAA-386, N-(3-hydroxy-2,6-dimethylphenyl)-2-((4-methyl-1-(4-methylthiazol-5-yl)-1H-pyrazol-3-yl)amino)thiazole-5-carboxamide]	Y (>20 fold)	< 50	1000 to 11000	X (100-<1000 fold)	> 5000			
